Test results taken from the supplement of paper PMC11003180.

Legend:
Test in all cases: drug sensitivity score (DSS) from 5-dose viability curve (DSS (area-based score, 0 = no response)); higher = more sensitive (stronger viability inhibition); extreme values may be limits of the assay
[1] = tested on: MDCK wild-type - doxycycline; conditions: doxycycline: none; 72 h
In short: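 Parental MDCK cells, grown without doxycycline, were seeded at 2000 cells/well into 384-well plates pre-spotted with an oncology library of 528 drugs at five doses (1-10,000 nM). After 72 h at 37 °C, CellTiter-Glo luminescence was read. Viability was scaled per plate between vehicle and positive controls, and drug sensitivity scores were derived from dose-response curve fits in the Breeze pipeline.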

[2] = tested on: MDCK p60AmotL2-inducible + doxycycline (p60AmotL2 expressing); conditions: doxycycline: 10 ng/mL; 72 h
In short: (§1)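 Two MDCK lines, parental and doxycycline-inducible, received doxycycline at 10 ng/mL in the medium before being plated at 2000 cells/well onto a pre-spotted 384-well oncology library of 528 drugs at five doses (1-10,000 nM). Incubation lasted 72 h at 37 °C. Viability was read by CellTiter-Glo luminescence, scaled per plate between vehicle and positive controls, and converted to drug sensitivity scores through Breeze curve fitting.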

[3] = tested on: MDCK wild-type + doxycycline; conditions: doxycycline: 10 ng/mL; 72 h
In short: as §1

Row | Compound | drug sensitivity score [1] | drug sensitivity score [2] | drug sensitivity score [3]
1 | CNC(=O)c1cccc(-c2ccc3c(N4CCOC[C@@H]4C)nc(N4CCOC[C@@H]4C)nc3n2)c1 [Vistusertib] | 7.5 | 15.5 | 10.5
2 | CC[C@@H]1C(=O)N(C)c2cnc(Nc3ccc(C(=O)N[C@H]4CC[C@H](N5CCN(CC6CC6)CC5)CC4)cc3OC)nc2N1C(C)C [Volasertib] | 16.6 | 17.4 | 15.3
3 | O=C(CCCCCCC(=O)Nc1ccccc1)NO [Vorinostat] | 7.5 | 11.8 | 9.8
4 | Oc1nc(-c2ccc(C(F)(F)F)cc2)nc2c1CSCC2 [XAV-939] | 0 | 0 | 0
5 | FC(F)c1nc2ccccc2n1-c1nc(N2CCOCC2)nc(N2CCOCC2)n1 [ZSTK474] | 4.7 | 10.3 | 7.2
6 | Cc1sc2c(c1C)C(c1ccc(Cl)cc1)=N[C@@H](CC(=O)NCCCCNC(=O)COc1cccc3c1C(=O)N(C1CCC(=O)NC1=O)C3=O)c1nnc(C)n1-2 (stereo partly drawn) [dBET1] | 9.5 | 9.3 | 8
